Experimental data published in publication PMC8967206, “Pyrimidine-5-carbonitrile based potential anticancer agents as apoptosis inducers through PI3K/AKT axis inhibition in leukaemia K562” (Journal of Enzyme Inhibition and Medicinal Chemistry, 2022).
Like-named read-outs stand apart in the source and are kept apart here. Values belong to the compound of their own block, whether it stands above or below them.

Assays:
[1] = test system: leukaemia (K562) cell line; test: MTT colorimetric cytotoxicity assay, K562; type: cell-based; conditions: Homo sapiens, 48 h incubation, mean ± SD of three experiments
Protocol: (§2) Cytotoxicity of our sixteen innovative compounds 4(a–e), 5(a–d), 6, and 7(a–f) together with control was assessed by means of in-vitro toxicology assay kit, MTT based (Sigma Aldrich, St. Louis, MO) against MCF-7 and K562 cell lines incubated in 96 microwell plates and proceeded as reported[32]^,[33]. MTT (3-[4,5-dimethylthiazol-2-yl]-2,5-diphenyl tetrazolium bromide) method measures the activity of living cells through mitochondrial dehydrogenase. Mitochondrial dehydrogenases of viable cells cleave the tetrazolium ring, giving purple formazan crystals that are dissolved in acidified isopropanol and the resulting purple solution is measured spectrophotometrically. The change in cell number is proportional to the intensity of purple colour produced and the degree of cytotoxicity caused by the test compounds. The absorbance at a wavelength of 570 nm was measured using (ROBONIK P2000 spectrophotometer) and the background absorbance of multi-well plates at 690 nm then the absorbance at 690 nm was subtracted from the 570 nm measurement. Five concentrations from each test compound ranging from (0.04 to 100 µM) were prepared and the experiments were done in triplicate.

[2] = test system: breast cancer (MCF-7) cell line; test: MTT colorimetric cytotoxicity assay, MCF-7; type: cell-based; conditions: Homo sapiens, MCF7, 48 h incubation, mean ± SD of three experiments
Protocol: as §2

[3] = test system: PI3K; test: Western blot, PI3K expression in K562; type: cell-based; conditions: K562, 48 h; control 0.881
Protocol: (§1) K562 cells were treated with the most promising compound (7f), for 48 h. Protein from control and treated cells was harvested and the concentration was measured via Bradford protein assay (Bio-Rad, Hercules, CA). The samples were loaded and separated by sodium dodecyl sulphate (SDS)-polyacrylamide gel electrophoresis and then transferred onto a polyvinylidene difluoride (PVDF) membrane. Western blot analysis was performed according to previously described.

[4] = In-vivo acute toxicity study; conditions: rat, 2 g/kg, female rats, po, observed 14 d, read-out: median lethal dose (LD50)
Protocol: Five female rats (180–200 g) were used in this test. The animals were fasted for 24 h prior to administration of the test compound. The compound was administered in a dose of 2 g/kg body weight, po . Animals are observed individually and the mortalities were recorded at least once during the first 30 min after dosing, periodically during the first 24 h and daily afterwards, for a total of 14 d[40]. All animals received humane care and experimental procedures were carried out in strict accordance with the health and care guidelines for experimental animals. All experimental operations performed on rats were approved by the Animal Experiment Ethics Committee of Heliopolis University (Approval number HU.REC.A0.23-2021).
The toxicological profile of the most promising synthesised anticancer compound 7f was evaluated in female rats using the reported method in OECD guidelines. […]

[5] = test system: p-PI3K; test: Western blot, p-PI3K expression in K562; type: cell-based; conditions: K562, 48 h; control 0.639
Protocol: as §1

[6] = test system: NFkb; test: Western blot, NFkb expression in K562; type: cell-based; conditions: K562, 48 h; control 0.719
Protocol: as §1

[7] = test system: K562 cells; test: Annexin-V-FITC apoptosis assay; type: cell-based; conditions: K562, 48 h
Protocol: Apoptosis induction was assayed by staining K562 cells with Annexin-V (fluorescein isothiocyanate) and the counterstaining PI using the Annexin-V-FITC/PI apoptosis detection kit (BD Biosciences, San Diego, CA) according to the manufacturer’s instructions. Cells were exposed to the tested compound for 48 h. After that, the cells were collected by trypsinisation and 0.5 × 10^6 cells and washed twice with phosphate-buffered saline (PBS) followed by staining with 5 µl Annexin-V-FITC and 5 µl PI in 1 × binding buffer for 15 min at room temperature in the dark. FACS Calibre flow cytometer (BD Biosciences, San Diego, CA)[26]^,[36]^,[37] was used for analyses.
Data of the current research highlighted that treating Leukaemia K562 cells for 48 h with the compound 7f caused an increase in the percentage of Annexin-V positive apoptotic cells both in the early and late stage which represents a total significant 17-fold increase compared to the control.

[8] = test system: Cyclin D1; test: Western blot, Cyclin D1 expression in K562; type: cell-based; conditions: K562, 48 h; control 0.849
Protocol: as §1

[9] = molecular target: T1, PI3Kγ (Homo sapiens, UniProt P48736); test: PI3K enzyme inhibition assay (ADP-Glo), PI3Kγ; type: biochemical; conditions: mean ± SD of three experiments
T1 construct: purchased BPS Bioscience, San Diego, CA
Protocol: (§3) The inhibition activities of 4d and 7f against PI3K enzyme were detected using PI3K assay kits and ADP-Glo kinase assay as a detection buffer (BPS Bioscience, San Diego, CA). According to the manufacturer’s instructions, PI3K enzyme was diluted with 2.5x Kinase assay buffer to obtain 4 ng/µl. The assay was performed in 96 well plates as follows: 5 µl of PIP2 substrate was added to each well followed by 5 ul from each inhibitor except for the positive control and blanks where the inhibitor buffers were added instead. Of 5 ul of 12.5 µM ATP was added. The reactions were initiated by adding 10 µl of diluted PI3K enzyme to the positive control and inhibitors wells. Plate was carefully shaked and was incubated at 30 °C for 40 min. After the 40 min incubation, 25 µl of ADP-Glo reagent were added to each well. The plate was covered with aluminium foil and incubated at room temperature for another 45 min. Of 50 µl of Kinase Detection reagent was added to each well. Plate was covered with aluminium foil and incubated at room temperature for extra 30 min. Luminescence was measured using microplate reader. Four concentrations from the two tested compounds ranged from (0.1 to 100 µM) were prepared and the experiment was repeated in triplicate. […] IC50 values were calculated using dose-response curves and linear regression equation.

[10] = molecular target: T2, PI3Kδ (Homo sapiens, UniProt O00329); test: PI3K enzyme inhibition assay (ADP-Glo), PI3Kδ; type: biochemical; conditions: mean ± SD of three experiments
T2 construct: purchased BPS Bioscience, San Diego, CA
Protocol: as §3

[11] = test system: p-AKT; test: Western blot, p-AKT expression in K562; type: cell-based; conditions: K562, 48 h; control 0.692
Protocol: as §1

[12] = test system: K562 cells; test: Cell cycle analysis (PI flow cytometry); type: cell-based
Protocol: Cell cycle analysis was determined by propidium iodide (PI) flow cytometry kit/BD. K562 cells were treated by compound 7f at its IC50 concentration. Then cells were washed in PBS, fixed in cold 70% ethanol for 30 min, washed twice in PBS, and centrifuged to remove supernatant, after that, cells were treated with 0.1 mg/ml ribonuclease, stained with 0.05 mg/ml PI. The results were analysed by flow cytometry using FACS calibre and cell cycle distribution were calculated and accomplished as reported[26]^,[34]^,[35].
As reported in the literature, inhibition of PI3K/AKT pathway affects the cell survival and proliferation[8]^,[9]. Thus, to investigate the effect of compound 7f in PI3K/Akt dual inhibition on cell cycle progression, cell cycle analysis was performed by flowcytometric analysis as reported[34]^,[35] on K562 cells treated with compound 7f. The outcomes presented in Table 4 indicated the interference with the cell cycle distribution, following 7f treatment, where there was a marked increase in the cells in pre-G1 phase by nearly 17-fold as compared to the control.

[13] = test system: AKT; test: Western blot, AKT expression in K562; type: cell-based; conditions: K562, 48 h; control 0.744
Protocol: as §1

[14] = test system: normal fibroblast cell line (WI-38); test: Cytotoxicity on normal fibroblast cell line; type: cell-based; conditions: WI-38 versus K562
[15] = Cytotoxicity on normal fibroblast cell line; type: cell-based; conditions: human, WI-38 normal fibroblast cells; non-tumorigenic cell line
[16] = parameters: method as in PMID 32659486; conditions: printed in Figure 4, target not given; cited from earlier work
[17] = molecular target: AKT-1 (Homo sapiens, UniProt P31749); test: AKT enzyme inhibition assay (ELISA, cell lysates); type: biochemical; conditions: mean ± SD of three experiments
Protocol: In brief, cell lysates were collected after treatment with the tested compounds using lysis buffer and centrifuged at 13,000 rpm for 15 min to obtain the cytosolic fraction. Samples were soaked with the kinase diluted buffer and the reaction was initiated by adding 10 µl of diluted ATP to each well, except blanks. Plate was incubated at 30 °C for up to 90 min covered with an adhesive plate sealer with gentle, shaking every 20 min. The reaction was stopped by emptying contents of each well. Of 40 µl of the phospho-specific substrate antibody was added except blank then incubated incubate at room temperature for 60 min, with shaking every 20 min. The liquid was aspirated and the wells washed three times with 1X washing buffer. After the last wash, liquid was aspirated and 40 µl of the diluted Anti-Rabbit IgG: HRP conjugate was added except blank, and incubated at room temperature for 30 min with shaking every 10 min. Plate was washed as described before. Of 60 µl of the TMB Substrate was added to each well and incubated at room temperature for 30–60 min. The reaction was stopped by adding 20 µl of the stop solution to each well. Absorbance was measured at 450 nm. Four concentrations from the tested compounds were prepared ranged from 0.1 to 100 µM and the assay was done in triplicates. […] LY2780301 compound was used as the positive control.

[18] = K562, treated at IC50 concentration

T2 sequence (O00329 whole entry): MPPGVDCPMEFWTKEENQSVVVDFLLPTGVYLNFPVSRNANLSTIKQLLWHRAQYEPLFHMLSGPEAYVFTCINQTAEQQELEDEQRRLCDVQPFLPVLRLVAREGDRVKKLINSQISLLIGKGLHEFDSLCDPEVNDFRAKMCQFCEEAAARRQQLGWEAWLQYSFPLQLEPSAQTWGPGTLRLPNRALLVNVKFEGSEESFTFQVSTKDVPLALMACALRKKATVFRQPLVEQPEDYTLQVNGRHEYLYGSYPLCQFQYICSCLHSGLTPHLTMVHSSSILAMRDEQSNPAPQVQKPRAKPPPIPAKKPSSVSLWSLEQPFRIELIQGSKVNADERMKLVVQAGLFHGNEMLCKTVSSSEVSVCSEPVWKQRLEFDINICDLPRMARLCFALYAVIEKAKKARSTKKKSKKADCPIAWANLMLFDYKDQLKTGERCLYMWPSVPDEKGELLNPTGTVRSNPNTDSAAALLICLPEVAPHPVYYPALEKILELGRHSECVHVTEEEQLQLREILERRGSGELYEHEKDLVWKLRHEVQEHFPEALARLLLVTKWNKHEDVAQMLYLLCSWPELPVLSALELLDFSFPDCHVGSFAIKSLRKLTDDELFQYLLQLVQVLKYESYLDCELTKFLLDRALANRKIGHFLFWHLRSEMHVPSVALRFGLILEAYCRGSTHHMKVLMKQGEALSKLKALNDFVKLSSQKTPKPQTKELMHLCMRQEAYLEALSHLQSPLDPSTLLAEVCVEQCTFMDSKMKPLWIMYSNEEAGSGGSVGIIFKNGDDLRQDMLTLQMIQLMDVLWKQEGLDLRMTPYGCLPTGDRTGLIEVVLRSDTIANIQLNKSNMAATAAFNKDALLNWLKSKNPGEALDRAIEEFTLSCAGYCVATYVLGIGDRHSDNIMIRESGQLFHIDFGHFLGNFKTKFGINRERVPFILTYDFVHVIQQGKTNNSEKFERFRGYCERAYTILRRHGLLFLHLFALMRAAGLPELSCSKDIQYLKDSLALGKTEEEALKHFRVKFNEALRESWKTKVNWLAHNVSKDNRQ
T2 sequence (P27986 whole entry partner): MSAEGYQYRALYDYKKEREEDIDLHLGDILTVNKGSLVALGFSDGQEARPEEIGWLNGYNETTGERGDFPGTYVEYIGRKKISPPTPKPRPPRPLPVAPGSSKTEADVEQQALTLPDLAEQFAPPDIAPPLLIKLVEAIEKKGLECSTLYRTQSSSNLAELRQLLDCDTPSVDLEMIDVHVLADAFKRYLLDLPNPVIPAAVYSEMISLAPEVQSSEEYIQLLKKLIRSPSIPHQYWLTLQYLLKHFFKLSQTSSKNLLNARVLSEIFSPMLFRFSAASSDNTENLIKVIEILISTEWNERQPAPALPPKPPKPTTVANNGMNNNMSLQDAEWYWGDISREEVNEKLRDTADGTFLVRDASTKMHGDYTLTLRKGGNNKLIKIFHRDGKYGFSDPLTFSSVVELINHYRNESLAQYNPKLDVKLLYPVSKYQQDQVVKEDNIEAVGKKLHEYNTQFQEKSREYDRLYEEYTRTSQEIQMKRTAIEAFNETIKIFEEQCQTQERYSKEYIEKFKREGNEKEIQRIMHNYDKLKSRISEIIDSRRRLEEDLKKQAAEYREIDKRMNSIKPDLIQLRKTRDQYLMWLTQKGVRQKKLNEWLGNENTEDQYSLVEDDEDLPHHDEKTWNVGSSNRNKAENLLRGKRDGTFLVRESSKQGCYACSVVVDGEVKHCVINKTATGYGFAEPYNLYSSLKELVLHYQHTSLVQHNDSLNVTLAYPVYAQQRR
T1 sequence (P48736 whole entry): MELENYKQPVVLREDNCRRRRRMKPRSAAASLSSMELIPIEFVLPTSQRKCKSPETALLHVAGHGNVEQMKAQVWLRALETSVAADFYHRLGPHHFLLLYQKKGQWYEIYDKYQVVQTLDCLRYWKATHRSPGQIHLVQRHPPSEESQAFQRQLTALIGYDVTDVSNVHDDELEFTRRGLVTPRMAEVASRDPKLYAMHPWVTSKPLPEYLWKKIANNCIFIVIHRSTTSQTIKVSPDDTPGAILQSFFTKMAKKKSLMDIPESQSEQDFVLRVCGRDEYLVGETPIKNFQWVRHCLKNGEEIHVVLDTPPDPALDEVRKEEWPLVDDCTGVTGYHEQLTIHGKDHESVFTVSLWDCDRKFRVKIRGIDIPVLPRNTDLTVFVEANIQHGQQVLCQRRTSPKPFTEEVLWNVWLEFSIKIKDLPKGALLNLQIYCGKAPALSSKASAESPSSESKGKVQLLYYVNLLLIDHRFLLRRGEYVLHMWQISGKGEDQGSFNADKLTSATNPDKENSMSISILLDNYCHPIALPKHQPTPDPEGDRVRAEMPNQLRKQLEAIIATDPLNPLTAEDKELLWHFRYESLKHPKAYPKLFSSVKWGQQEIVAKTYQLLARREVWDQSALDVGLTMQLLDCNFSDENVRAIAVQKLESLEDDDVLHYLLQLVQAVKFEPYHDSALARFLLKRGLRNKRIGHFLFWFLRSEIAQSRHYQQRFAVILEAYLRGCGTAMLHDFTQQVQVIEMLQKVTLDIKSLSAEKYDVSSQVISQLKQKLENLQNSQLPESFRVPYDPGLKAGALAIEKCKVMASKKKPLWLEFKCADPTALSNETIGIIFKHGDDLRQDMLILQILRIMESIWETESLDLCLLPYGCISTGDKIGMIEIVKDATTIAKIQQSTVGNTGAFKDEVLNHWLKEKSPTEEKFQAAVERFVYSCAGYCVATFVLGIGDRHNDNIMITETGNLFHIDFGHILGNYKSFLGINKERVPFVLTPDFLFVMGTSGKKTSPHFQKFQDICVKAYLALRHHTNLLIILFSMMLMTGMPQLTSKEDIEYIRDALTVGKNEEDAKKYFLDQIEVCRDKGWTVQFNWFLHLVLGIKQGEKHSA
AKT-1, sequence (P31749 whole entry): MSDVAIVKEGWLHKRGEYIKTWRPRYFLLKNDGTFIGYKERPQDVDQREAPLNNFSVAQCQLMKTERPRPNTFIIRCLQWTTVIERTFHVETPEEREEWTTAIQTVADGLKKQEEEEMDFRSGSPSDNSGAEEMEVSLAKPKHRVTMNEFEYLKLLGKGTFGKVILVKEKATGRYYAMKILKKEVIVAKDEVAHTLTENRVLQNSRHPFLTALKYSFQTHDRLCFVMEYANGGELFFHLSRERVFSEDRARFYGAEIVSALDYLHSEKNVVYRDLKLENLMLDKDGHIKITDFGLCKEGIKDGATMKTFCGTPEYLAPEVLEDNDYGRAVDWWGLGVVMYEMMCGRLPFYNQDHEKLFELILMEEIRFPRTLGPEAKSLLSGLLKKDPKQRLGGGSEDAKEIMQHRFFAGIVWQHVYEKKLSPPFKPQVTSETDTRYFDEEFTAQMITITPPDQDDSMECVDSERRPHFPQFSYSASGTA

- melting point: 246 to 248 °C
SMILES: COc1ccc(-c2nc(SC)nc(NN=Cc3ccc(C)cc3)c2C#N)cc1 [7a, 4–(4-Methoxyphenyl)-6-(2-(4-methylbenzylidene)hydrazineyl)-2-(methylthio)pyrimidine-5-carbonitrile]
- IC50 [1]: 22.8 ± 1.08 µM
- IC50 [2]: 30.5 ± 1.66 µM

- melting point: 248 to 250 °C
SMILES: COc1ccc(-c2nc(SC)nc(NN=Cc3ccc([N+](=O)[O-])cc3)c2C#N)cc1 [7e, 4–(4-Methoxyphenyl)-2-(methylthio)-6-(2-(4-nitrobenzylidene)hydrazineyl)pyrimidine-5-carbonitrile]
- IC50 [1]: 5.36 ± 0.25 µM
- IC50 [2]: 7.11 ± 0.39 µM

- melting point: 244 to 246 °C
SMILES: COc1ccc(C=NNc2nc(SC)nc(-c3ccc(OC)cc3)c2C#N)cc1 [7b, 4-(2-(4-Methoxybenzylidene)hydrazineyl)-6-(4-methoxyphenyl)-2-(methylthio)pyrimidine-5-carbonitrile]
- IC50 [1]: 16.8 ± 0.8 µM
- IC50 [2]: 22.9 ± 1.24 µM

- IC50 [10]: 13.4 ± 0.67 µM
SMILES: O=c1cc(N2CCOCC2)oc2c(-c3ccccc3)cccc12 [LY294002, reference compound]

- melting point: 238 to 240 °C
SMILES: COc1ccc(Nc2nc(SC)nc(-c3ccc(OC)cc3)c2C#N)cc1 [5b, 4-(4-Methoxyphenyl)-6-((4-methoxyphenyl)amino)-2-(methylthio)pyrimidine-5-carbonitrile]
- IC50 [1]: 46.3 ± 2.2 µM
- IC50 [2]: 125 ± 6.82 µM

- melting point: 270 to 272 °C
SMILES: COc1ccc(-c2nc(SC)nc(Nc3ccc(C)cc3)c2C#N)cc1 [5a, 4-(4-Methoxyphenyl)-2-(methylthio)-6-(p-tolylamino)pyrimidine-5-carbonitrile]
- IC50 [1]: 26.3 ± 1.25 µM
- IC50 [2]: 21.3 ± 1.16 µM

- melting point: 266 to 268 °C
SMILES: COc1ccc(-c2nc(SC)nc(NN=Cc3ccc(Cl)cc3)c2C#N)cc1 [7c, 4-(2-(4-Chlorobenzylidene)hydrazineyl)-6-(4-methoxyphenyl)-2-(methylthio)pyrimidine-5-carbonitrile]
- IC50 [1]: 3.76 ± 0.18 µM
- IC50 [2]: 7.42 ± 0.4 µM

- IC50 [17]: 4.62 ± 0.24 µM
SMILES: CN(C)CCn1cc(-c2ccc(F)c(C(F)(F)F)c2)nc1C1CCN(c2ncnc3c2CC(=O)N3)CC1 [LY2780301]

- melting point: 246 to 248 °C
SMILES: COc1ccc(-c2nc(SC)nc(NN=Cc3ccc(Br)cc3)c2C#N)cc1 [7d, 4-(2-(4-Bromobenzylidene)hydrazineyl)-6-(4-methoxyphenyl)-2-(methylthio)pyrimidine-5-carbonitrile]
- IC50 [1]: 44.3 ± 2.1 µM
- IC50 [2]: 56 ± 3.05 µM

Further lines, the compound ahead of its results:

SMILES: COc1ccc(-c2nc(SC)nc(Nc3ccc(Cl)cc3)c2C#N)cc1 [5c]
- IC50 [1]: 5.82 ± 0.28 µM
- IC50 [2]: 46.9 ± 2.55 µM

SMILES: COc1ccc(-c2nc(SC)nc(N3CCN(C)CC3)c2C#N)cc1 [4b, 4-(4-Methoxyphenyl)-6-(4-methylpiperazin-1-yl)-2-(methylthio)pyrimidine-5-carbonitrile]
- IC50 [1]: 93.6 ± 4.44 µM
- IC50 [2]: 56.3 ± 3.06 µM

SMILES: COc1ccc(-c2nc(SC)nc(NN=Cc3cc(OC)c(OC)c(OC)c3)c2C#N)cc1 [7f, 4-(4-Methoxyphenyl)-2-(methylthio)-6-(2-(3,4,5-trimethoxybenzylidene)hydrazineyl)pyrimidine-5-carbonitrile]
- Western blot [OD] PI3K [3]: 0.219 OD
- LD50 at 14 d [4]: > 2000 mg/kg
- Western blot [OD] p-PI3K [5]: 0.281 OD
- Western blot [OD] NFkb [6]: 0.402 OD
- Apoptosis% Early [7]: 3.19%
- Apoptosis% Late [7]: 19.04%
- Apoptosis% Total [7]: 31.72%
- Necrosis [7]: 9.49%
- Total increase of Annexin-V positive apoptotic cells compared to the control [7]: 17 fold
- Western blot [OD] Cyclin D1 [8]: 0.383 OD
- IC50 [1]: 2.62 ± 0.12 µM
- IC50 [9]: 6.99 ± 0.36 µM
- IC50 [10]: 4.01 ± 0.55 µM
- IC50 [2]: 3.22 ± 0.18 µM
- Western blot [OD] p-AKT [11]: 0.316 OD
- Cell cycle analysis, Comment ([12]; K562): Cell growth arrest at S phase
- Increase in S-phase compared to the control ([12]; K562): ~1.3 fold
- Increase in cells in pre-G1 phase compared to the control ([12]; K562): ~17 fold
- DNA content % %G0-G1 [12, 18]: 44.97%
- DNA content % %Pre-G1 [12, 18]: 31.72%
- Western blot [OD] AKT [13]: 0.402 OD
- SI (selectivity index) [14]: 13.29
- IC50 [15]: 34.8 ± 2.11 µM

SMILES: COc1ccc(-c2nc(SC)nc(N3CCN(c4ccccc4)CC3)c2C#N)cc1 [4c, 4-(4-Methoxyphenyl)-2-(methylthio)-6-(4-phenylpiperazin-1-yl)pyrimidine-5-carbonitrile]
- IC50 [1]: 3.86 ± 0.18 µM
- IC50 [2]: 6.64 ± 0.36 µM

SMILES: COc1ccc(-c2nc(SC)nc(N3CCNCC3)c2C#N)cc1 [4a, 4-(4-Methoxyphenyl)-2-(methylthio)-6-(piperazin-1-yl)pyrimidine-5-carbonitrile]
- IC50 [1]: 7.97 ± 0.38 µM
- IC50 [2]: 2.54 ± 0.14 µM

SMILES: COc1ccc(-c2nc(N/N=C/c3c[nH]c4ccccc34)nc(N3CCOCC3)c2C#N)cc1 [VIII]
- IC50 [16]: 10.9 µM

SMILES: COc1ccc(-c2nc(SC)nc(N3CCN(c4ccccc4OC)CC3)c2C#N)cc1 [4e, 4-(4-Methoxyphenyl)-6-(4-(2-methoxyphenyl)piperazin-1-yl)-2-(methylthio)pyrimidine-5-carbonitrile]
- melting point: 170 to 172 °C
- IC50 [1]: 34.8 ± 1.65 µM
- IC50 [2]: 15.6 ± 0.85 µM

SMILES: COc1ccc(-c2nc(SC)nc(Nc3ccc(Br)cc3)c2C#N)cc1 [5d, 4-((4-Bromophenyl)amino)-6-(4-methoxyphenyl)-2-(methylthio)pyrimidine-5-carbonitrile]
- IC50 [1]: 5.52 ± 0.26 µM
- IC50 [2]: 15.7 ± 0.85 µM

SMILES: COc1ccc(-c2nc(SC)nc(N3CCN(c4ccccc4F)CC3)c2C#N)cc1 [4d, 4-(4-(2-Fluorophenyl)piperazin-1-yl)-6-(4-methoxyphenyl)-2-(methylthio)pyrimidine-5-carbonitrile]
- melting point: 142 to 144 °C
- IC50 [1]: 1.06 ± 0.05 µM
- IC50 [9]: 35.1 ± 1.82 µM
- IC50 [10]: 23.9 ± 1.2 µM
- IC50 [2]: 0.8 ± 0.25 µM
- SI (selectivity index) [14]: 109.72
- IC50 [15]: 116 ± 7.03 µM

SMILES: COc1ccc(-c2nc(SC)nc(NN)c2C#N)cc1 [compound 6, 4-Hydrazineyl-6-(4-methoxyphenyl)-2-(methylthio)pyrimidine-5-carbonitrile]
- melting point: 270 to 272 °C
- IC50 [1]: 6.67 ± 0.32 µM
- IC50 [2]: 3.49 ± 0.19 µM
